Results reported in PubChem BioAssay (NCI).
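Step 1: Grow cells in 96-well plates. Step 2: Expose to compound for 48 hours at 5 concentrations. Step 3: Interpolate endpoints linearly; if unreached, use highest concentration. TGI: total growth inhibition.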

Tests used:
Assay in all cases: NCI-60 cell line screen, 48 h
[1] = system: 786-0 renal
[2] = system: A498 renal
[3] = system: A549 NSCLC
[4] = system: ACHN renal
[5] = system: BT-549 breast
[6] = system: CAKI-1 renal
[7] = system: CCRF-CEM leukemia
[8] = system: COLO 205 colon
[9] = system: DU-145 prostate
[10] = system: HCT-116 colon
[11] = system: HCT-15 colon
[12] = system: HL-60(TB) leukemia
[13] = system: HOP-62 NSCLC
[14] = system: HOP-92 NSCLC
[15] = system: HS 578T breast
[16] = system: HT29 colon
[17] = system: IGROV1 ovarian
[18] = system: K-562 leukemia
[19] = system: KM12 colon
[20] = system: LOX IMVI melanoma
[21] = system: M14 melanoma
[22] = system: MALME-3M melanoma
[23] = system: MCF7 breast
[24] = system: MDA-MB-231 breast
[25] = system: MDA-MB-435
[26] = system: MDA-N
[27] = system: MOLT-4 leukemia
[28] = system: NCI-H23 lung
[29] = system: NCI-H460 lung
[30] = system: NCI/ADR-RES ovarian
[31] = system: OVCAR-3 ovarian
[32] = system: OVCAR-4 ovarian
[33] = system: OVCAR-5 ovarian
[34] = system: OVCAR-8 ovarian
[35] = system: PC-3 prostate
[36] = system: RPMI-8226 leukemia
[37] = system: SF-268 CNS
[38] = system: SF-295 CNS
[39] = system: SF-539 CNS
[40] = system: SK-MEL-2 melanoma
[41] = system: SK-MEL-28 melanoma
[42] = system: SK-MEL-5 melanoma
[43] = system: SK-OV-3 ovarian
[44] = system: SN12C renal
[45] = system: SNB-19 CNS
[46] = system: SNB-75 CNS
[47] = system: SR leukemia
[48] = system: SW-620 colon
[49] = system: TK-10 renal
[50] = system: U251 CNS
[51] = system: UACC-257 melanoma
[52] = system: UACC-62 melanoma
[53] = system: UO-31 renal
[54] = system: EKVX NSCLC
[55] = system: HCC-2998 colon
[56] = system: NCI-H226 lung
[57] = system: NCI-H522 lung

Q: With `ClCCN1CCC2(CC1)SSC1(CCN(CCCl)CC1)S2` as the compound, how does the TGI [1] read?
A: > 100 µM

Q: What about the TGI [2] of the same compound?
A: > 100 µM

Q: And the TGI [3]?
A: > 100 µM

Q: And the TGI [4]?
A: > 100 µM

Q: And the TGI [5]?
A: > 100 µM

Q: And the TGI [6]?
A: 33.4 µM

Q: And the TGI [7]?
A: 55.6 µM

Q: What about the TGI [8] of the same compound?
A: 41.2 µM

Q: And the TGI [9]?
A: > 100 µM

Q: What about the TGI [10] of the same compound?
A: > 100 µM

Q: And the TGI [11]?
A: > 100 µM

Q: What about the TGI [12] of the same compound?
A: 76.8 µM

Q: What about the TGI [13] of the same compound?
A: > 100 µM

Q: What about the TGI [14] of the same compound?
A: 29.2 µM

Q: And the TGI [15]?
A: > 100 µM

Q: What about the TGI [16] of the same compound?
A: > 100 µM

Q: What about the TGI [17] of the same compound?
A: > 100 µM

Q: What about the TGI [18] of the same compound?
A: > 100 µM

Q: What about the TGI [19] of the same compound?
A: > 100 µM

Q: And the TGI [20]?
A: > 100 µM

Q: What about the TGI [21] of the same compound?
A: > 100 µM

Q: What about the TGI [22] of the same compound?
A: 73.6 µM

Q: What about the TGI [23] of the same compound?
A: 39.6 µM

Q: What about the TGI [24] of the same compound?
A: > 100 µM

Q: What about the TGI [25] of the same compound?
A: > 100 µM

Q: And the TGI [26]?
A: > 100 µM

Q: And the TGI [27]?
A: > 100 µM

Q: And the TGI [28]?
A: > 100 µM

Q: What about the TGI [29] of the same compound?
A: > 100 µM

Q: And the TGI [30]?
A: > 100 µM

Q: What about the TGI [31] of the same compound?
A: 63.3 µM

Q: What about the TGI [32] of the same compound?
A: > 100 µM

Q: What about the TGI [33] of the same compound?
A: 72 µM

Q: And the TGI [34]?
A: > 100 µM

Q: And the TGI [35]?
A: > 100 µM

Q: What about the TGI [36] of the same compound?
A: 57.1 µM

Q: What about the TGI [37] of the same compound?
A: 30.9 µM

Q: What about the TGI [38] of the same compound?
A: 92.5 µM

Q: And the TGI [39]?
A: 56.3 µM

Q: What about the TGI [40] of the same compound?
A: > 100 µM

Q: What about the TGI [41] of the same compound?
A: > 100 µM

Q: And the TGI [42]?
A: > 100 µM

Q: What about the TGI [43] of the same compound?
A: 98.7 µM

Q: What about the TGI [44] of the same compound?
A: 72.8 µM

Q: And the TGI [45]?
A: > 100 µM

Q: And the TGI [46]?
A: > 100 µM

Q: What about the TGI [47] of the same compound?
A: > 100 µM

Q: What about the TGI [48] of the same compound?
A: > 100 µM

Q: And the TGI [49]?
A: 95.5 µM

Q: And the TGI [50]?
A: > 100 µM

Q: And the TGI [51]?
A: > 100 µM

Q: And the TGI [52]?
A: 71 µM

Q: And the TGI [53]?
A: > 100 µM

Q: What does the source list for `Cc1ccc(C(=O)O)cc1S(=O)(=O)Nn1cnc2ccc(S(=O)(=O)Nc3ccccc3C(=O)O)cc2c1=O`?
A: TGI [1]: > 100 µM; TGI [3]: > 100 µM; TGI [4]: > 100 µM; TGI [5]: > 100 µM; TGI [6]: > 100 µM; TGI [7]: > 100 µM; TGI [8]: > 100 µM; TGI [9]: > 100 µM; TGI [54]: > 100 µM; TGI [55]: > 100 µM; TGI [10]: > 100 µM; TGI [11]: > 100 µM; TGI [12]: > 100 µM; TGI [13]: > 100 µM; TGI [14]: > 100 µM; TGI [15]: > 100 µM; TGI [16]: > 100 µM; TGI [17]: > 100 µM; TGI [18]: > 100 µM; TGI [19]: > 100 µM; TGI [20]: > 100 µM; TGI [21]: > 100 µM; TGI [22]: > 100 µM; TGI [23]: > 100 µM; TGI [24]: > 100 µM; TGI [25]: > 100 µM; TGI [26]: > 100 µM; TGI [27]: > 100 µM; TGI [56]: > 100 µM; TGI [28]: > 100 µM; TGI [29]: > 100 µM; TGI [57]: > 100 µM; TGI [30]: > 100 µM; TGI [31]: > 100 µM; TGI [32]: > 100 µM; TGI [33]: > 100 µM; TGI [34]: > 100 µM; TGI [35]: > 100 µM; TGI [36]: > 100 µM; TGI [37]: > 100 µM; TGI [38]: > 100 µM; TGI [39]: > 100 µM; TGI [40]: > 100 µM; TGI [41]: > 100 µM; TGI [43]: > 100 µM; TGI [44]: > 100 µM; TGI [45]: > 100 µM; TGI [46]: > 100 µM; TGI [47]: > 100 µM; TGI [48]: > 100 µM; TGI [49]: > 100 µM; TGI [50]: > 100 µM; TGI [51]: > 100 µM; TGI [52]: > 100 µM; TGI [53]: > 100 µM
